# Reference: patent US20230225972A1 (priority 2020, published 2023)
# System: influenza
# Design: species or system Mice
# Conditions: mouse, in vivo
smiles,measurement,value
Nc1nc2c(ncn2[C@@H]2O[C@@H]3COP(=O)(O)O[C@H]4[C@@H](O)[C@H](n5cnc6c(=O)[nH]c(N)nc65)O[C@@H]4COP(=O)(O)O[C@H]3[C@H]2O)c(=O)[nH]1 [c-di-GMP],viral replication in the nose,facilitate reduction of viral replication in the nose
